From patent US20140288025A1, “FATTY ACID ANTIVIRAL CONJUGATES AND THEIR USES” (Catabasis Pharmaceuticals, Inc., priority 2013, published 2014)
Read-outs that look alike come from different tables or passages of the source.

Assays:
Type in all cases: cell-based
HIV-1IIIB strain = assay: HIV-1 cytoprotection assay (CEM-SS cells, MTS dye reduction); conditions: for IC50 HIV-1IIIB strain (nM): CEM-SS cells, 6 days, MTS
Procedure: Cytoprotection assays are commonly used for evaluating the antiviral efficacy of test compounds against a variety of viruses in different cell lines. […] Briefly, virus and cells are mixed in the presence of test compound and incubated for 6 days. […] Each assay plate contains cell control wells (cells only), virus control wells (cells plus virus), compound toxicity control wells (cells plus compound only), compound colorimetric control wells (compound only), as well as experimental wells (compound plus cells plus virus). Cytoprotection and compound cytotoxicity are assessed by MTS (CellTiter®96 Reagent, Promega, Madison Wis.) dye reduction. […] Each assay includes the HIV reverse transcriptase inhibitor AZT as a positive control.
CEM-SS cells were obtained from the NIH AIDS Research and Reference Reagent Program and are routinely passaged in T-75 flasks using standard tissue culture techniques based on the specifications provided by the supplier. On the day preceding the assay, the cells are split 1:2 to assure they are in an exponential growth phase at the time of infection. Total cell number and percent viability determinations are performed using a hemacytometer and trypan blue exclusion. […] The cells are re-suspended at 5×10^4 cells/mL in tissue culture medium and added to the drug-containing 96-well microtiter plates in a volume of 50 μl.
The viruses used for this assay are CXCR4-tropic laboratory virus strains. The most commonly used strains are HIV-1RF and HIV-1IIIB (each obtained from the NIH AIDS Research and Reference Reagent Program). For each assay, a pre-titered aliquot of virus is removed from the freezer (−80° C.) and allowed to thaw slowly to room temperature in a biological safety cabinet. The virus is re-suspended and diluted into tissue culture medium such that the amount of virus added to each well in a volume of 50 μl is the amount determined to give between 85 to 95% cell killing at 6 days post-infection.
Each plate contains cell control wells (cells only), virus control wells (cells plus virus), drug cytotoxicity wells (cells plus drug only), drug colorimetric control wells (drug only), background control wells (media only), as well as experimental wells (drug plus cells plus virus). Samples are evaluated for antiviral efficacy with triplicate measurements using 6 concentrations at half-log dilutions (12 concentrations can also be performed) in order to determine IC50 values and with duplicate measurements to determine cellular cytotoxicity, if detectable.
100% EtOH is added to the compounds of the invention such that the EtOH stock concentration is 50 mM. […] (VWR Ultrasonics Cleaner, Model #B8500A-DTH with “Sonics Power” set to HI); e) The 1:2 serial dilutions of the 1 mM 10× stock solution with FBS/2% EtOH are prepared such that the concentrations of the 10× stock solutions are 1 mM, 0.5 mM, 0.25 mM, etc., in FBS with 2% EtOH. Medium is aspirated off cells and replaced with serum free medium.

NF-κB = NF-κB luciferase reporter assay in RAW 264.7 macrophages; conditions: for IC50: Mus musculus
Procedure: RAW 264.7 cells stably expressing a 3×NFkB response element-drive luciferase reporter were seeded into 96 well plates in sera-free medium (Optimem) 18 hours prior to compound application. Compounds of the invention were prepared by first making 100 mM stock solutions in EtOH. […] Cells were then stimulated with 200 ng/ml LPS or vehicle control for 3 hours in the presence of the compounds of the invention. A set of six vehicles was left unstimulated with LPS in order to measure the assay floor. AlamarBlue viability dye (Invitrogen) was added to cells simultaneously with the delivery of LPS (final AlamarBlue concentration of 10%). After the 3 h incubation period with LPS, cell viability was measured by reading fluorescence (excitation 550 nm, emission 595 nm) with a Perkin Elmer Victor V plate reader. Then cell media was aspirated from each well. Luciferase signal was then developed by addition of the Britelite Plus reagent (Perkin Elmer). Luciferase activity was measured with the Perkin Elmer Victor V plate reader. NE-κB activity was expressed as a percent of the vehicle control wells (stimulated with LPS). Compounds were tested at 6 dose point titrations in triplicate to determine IC50 values.

HBV = HBV assay, extracellular HBV DNA in HepG2 2.2.15 cells; conditions: Hepatitis B virus, read-out: EC90 against HBV
Procedure: Extracellular HBV DNA analysis was carried out using the protocols outlined in Innaimo et al, Antimicrobial Agents and Chemotherapy 1997, 41, p. 1444-1448 and Korba and Milman Antiviral Research 1991, 15, p. 217-228. HepG2 2.2.15 cells were maintained in RPMI 1640 supplemented with 2 mM L-glutamine, 50 U of penicillin per mL, 50 μg of streptomycin per mL, 500 μg of G418 per mL, and 5% fetal bovine serum. Stock solutions of the test compounds were prepared according to the procedures outlined in example 3. HepG2 2.2.15 cells were plated at a density of 5×10^5 cells per well on 12-well Biocoat collagen-coated plates (Collaborative Biosciences, Beford, Mass.) and were maintained in a confluent state for 2 to 3 days before being overlaid with 1 mL of medium spiked with the antiviral compound. Compound-containing medium was changed daily for 9 days. On day 10, the media were collected and clarified by pelleting the cellular debris with a 5-min microcentrifuge spin at 16,000×g. Supernatants were processed for HBV DNA by the alkaline lysis method. Released HBV DNA was immobilized on a Magnagraph nylon membrane (Micron Separatations, Inc., Westborough, Mass.) by sing a dot blot manifold full-length HBV genome template excised from plasmid pTHBV-1 (American Type Culture Collection, Rockville, Md.) and ^32P-radiolabeled to a specific activity of 2×10^9 cpm/μg by using a random primer kit (Life Technologies, Grand Island, N.Y.). Quantification was performed on a Storm 860 phosphorimager (Molecular Dynamics, Sunnyvale, Calif.). All drug concentrations were tested in duplicate or triplicate, with antiviral effects being scored as reductions in the amount of HBV DNA present in the medium relative to that in untreated controls after the 10-day treatment period. Using the assay, the following EC90 values against HBV were obtained: […]

[1] = tested on: HCV Con 1 subgenomic replicon; assay: HCV replicon assay (Huh-7 GS4.1 cells, NS4A ELISA); conditions: Hepatitis C virus, Huh-7 GS4.1 replicon cells, 72 hours
Procedure: The HCV replicon assay was carried out in the same manner described in WO 2010/018140, WO 2011/123586, Okuse et al Antivir. Res. 2005, 65, p. 23, Blight et al Science 2000, 290, p. 1972, Korba and Gerin Antivir. Res. 1992, 19, p. 55). Huh-7 cells containing HCV Con 1 subgenomic replicon (GS4.1 cells) were grown in Dulbecco's Modified Eagle Medium (DMEM) supplemented with 10% fetal bovine serum (FBS), 2 mM L-glutamine, 110 mg/L sodium pyruvate, 1× non-essential amino acids, 100 U/mL penicillin-streptomycin and 0.5 mg/mL G418 (Invitrogen). For dose-response testing, the cells were seeded in 96-well plates at 7.5×10^3 cells/well in a volume of […] and incubated at 37° C./5% CO2. […] The cells were incubated in the presence of compounds for 72 hours after which they are monitored for expression of the NS4A protein by enzyme-linked immunosorbent assay (ELISA). […] The reaction was stopped after 30 minutes with 2 N H2SO4 and the absorbance was read at 492 nm using a Sunrise Tecan spectrophotometer. EC50 values were determined from the % inhibition vs concentration data using a sigmoidal non-linear regression analysis based on four parameters with Tecan Magellan software. For cytotoxicity evaluation, GS4.1 cells are treated with compounds as described and cellular viability can be monitored using a Cell Titer 96 AQueous One Solution Cell Proliferation Assay (Promega). […]

[2] = RAW264.7, 3 h, read-out: NF-kB inhibitory activity IC50 μM

Row | SMILES | IC50 (NF-κB; [2]) [µM] | EC90 (HBV; HepG2 2.2.15, 240 h) [nM] | other results
1 | CC/C=C\C/C=C\C/C=C\C/C=C\C/C=C\C/C=C\CCC(=O)Nc1ccn([C@@H]2CS[C@H](CO)O2)c(=O)n1 [Example V-18, (4Z,7Z,10Z,13Z,16Z,19Z)—N-(1-((2R,5S)-2-(hydroxymethyl)-1,3-oxathiolan-5-yl)-2-oxo-1,2-dihydropyrimidin-4-yl)docosa-4,7,10,13,16,19-hexaenamide] | – | – | IC50 HIV-1IIIB strain (nM) (HIV-1IIIB strain): + ++; IC50 (NF-κB; RAW264.7, RAW 264.7 reporter cells, 200 ng/ml LPS, 3 hours, read-out: NF-kB inhibitory activity IC50): > 200 µM; EC90 (HBV; 240 h, HepG2 2.2.15 cells, extracellular HBV DNA, 10-day treatment): 81 nM
2 | CC/C=C\C/C=C\C/C=C\C/C=C\C/C=C\C/C=C\CCC(=O)NCCNC(=O)OC[C@@H]1O[C@H](n2ccc(N)nc2=O)CS1 [Example V-21, ((2R,5S)-5-(4-amino-2-oxopyrimidin-1(2H)-yl)-1,3-oxathiolan-2-yl)methyl (2-((4Z,7Z,10Z,13Z,16Z,19Z)-docosa-4,7,10,13,16,19-hexaenamido)ethyl)carbamate] | 50 to 200 | 79 | IC50 HIV-1IIIB strain (nM) (HIV-1IIIB strain): + ++
3 | CC/C=C\C/C=C\C/C=C\C/C=C\C/C=C\C/C=C\CCC(=O)NCCNP(=O)(OC[C@H]1O[C@@H](n2ccc(=O)[nH]c2=O)[C@](C)(F)[C@@H]1O)Oc1ccccc1 (stereo partly drawn) [II-1, ((2R,3R,4R,5R)-5-(2,4-dioxo-3,4-dihydropyrimidin-1(2H)-yl)-4-fluoro-3-hydroxy-4-methyltetrahydrofuran-2-yl)methyl phenyl (2-((4Z,7Z,10Z,13Z,16Z,19Z)-docosa-4,7,10,13,16,19-hexaenamido)ethyl) phosphoramidate] | – | – | EC50 [1]: 780 nM
4 | C=C1[C@H](COP(=O)(NCCNC(=O)CC/C=C\C/C=C\C/C=C\C/C=C\C/C=C\C/C=C\CC)OC)[C@@H](O)C[C@@H]1n1cnc2c(=O)nc(N)[nH]c21 (stereo partly drawn) [II-46, ((1R,3S,5S)-3-(2-amino-6-oxo-3H-purin-9(6H)-yl)-5-hydroxy-2-methylenecyclopentyl)methyl methyl (2-((4Z,7Z,10Z,13Z,16Z,19Z)-docosa-4,7,10,13,16,19-hexaenamido)ethyl)phosphoramidate] | – | 7 | –
5 | C=C1[C@H](COP(=O)(NCCNC(=O)CCC/C=C\C/C=C\C/C=C\C/C=C\C/C=C\CC)OC)[C@@H](O)C[C@@H]1n1cnc2c(=O)nc(N)[nH]c21 (stereo partly drawn) [II-48, ((1R,3S,5S)-3-(2-amino-6-oxo-3H-purin-9(6H)-yl)-5-hydroxy-2-methylenecyclopentyl)methyl methyl (2-((5Z,8Z,11Z,14Z,17Z)-icosa-5,8,11,14,17-pentaenamido)ethyl)phosphoramidate] | 50 to 200 | 7 | –
6 | CC/C=C\C/C=C\C/C=C\C/C=C\C/C=C\C/C=C\CCC(=O)NCCNP(=O)(OC[C@@H]1O[C@H](n2ccc(N)nc2=O)CS1)Oc1ccccc1 (stereo partly drawn) [II-67, ((2R,5S)-5-(4-amino-2-oxopyrimidin-1(2H)-yl)-1,3-oxathiolan-2-yl)methyl phenyl (2-((4Z,7Z,10Z,13Z,16Z,19Z)-docosa-4,7,10,13,16,19-hexaenamido)ethyl)phosphoramidate] | – | 75 | IC50 (HIV-1IIIB strain; Human immunodeficiency virus 1, IIIB, CEM-SS, 144 h, read-out: IC50 HIV-1IIIB strain (nM)): < 100 nM; NF-kB inhibitory activity IC50 μM (NF-κB; RAW 264.7 reporter cells, 200 ng/ml LPS, 3 hours): + +
7 | CC/C=C\C/C=C\C/C=C\C/C=C\C/C=C\CCCC(=O)NCCNP(=O)(OC[C@@H]1OC(n2ccc(N)nc2=O)CS1)Oc1ccccc1 (stereo partly drawn) [II-68] | 50 to 200 | 82 | –
